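How tested: cells in 96-well plates exposed to compound for 48 hours at five concentrations. The concentration for 50% growth inhibition is given as GI50. TGI marks complete inhibition of growth.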
Tests used:
Assay in all cases: inhibition of tumour cell growth, NCI panel, 48 h
SN12C renal = system: SN12C renal
SF-268 CNS = system: SF-268 CNS
CAKI-1 renal = system: CAKI-1 renal
SNB-75 CNS = system: SNB-75 CNS
MDA-N = system: MDA-N
KM12 colon = system: KM12 colon
EKVX NSCLC = system: EKVX NSCLC
IGROV1 ovarian = system: IGROV1 ovarian
MDA-MB-231 breast = system: MDA-MB-231 breast
MOLT-4 leukemia = system: MOLT-4 leukemia

| SMILES | TGI (SN12C renal) | TGI (SF-268 CNS) | TGI (CAKI-1 renal) | TGI (SNB-75 CNS) | TGI (MDA-N) | TGI (KM12 colon) | TGI (EKVX NSCLC) | TGI (IGROV1 ovarian) | TGI (MDA-MB-231 breast) | TGI (MOLT-4 leukemia) | GI50 (SNB-75 CNS) | GI50 (EKVX NSCLC) | GI50 (MDA-MB-231 breast) |
| --- | --- | --- | --- | --- | --- | --- | --- | --- | --- | --- | --- | --- | --- |
| O=C1C=CC=C/C1=C1\N=C(c2ccccc2OCC(=O)c2ccccc2)SS1 | > 100 µM | > 100 µM | > 100 µM | 65.8 µM | > 100 µM | > 100 µM | > 100 µM | > 100 µM | > 100 µM | 47.2 µM |  |  |  |
| OCCOCn1nncc1Cn1ncc2c(SCc3ccccc3)ncnc21 | > 100 µM | > 100 µM | > 100 µM | > 100 µM | > 100 µM | > 100 µM | > 100 µM | > 100 µM | > 100 µM | 34 µM |  |  |  |
| COc1ccccc1C1Nn2c(nc3ccccc3c2=O)N1c1ccc(C)cc1 (stereo not drawn) | 21.7 µM | 25.1 µM | 24.1 µM | 30.5 µM | 20.9 µM | 60.3 µM | 34.6 µM | 19.8 µM | 18.3 µM | 11.4 µM |  |  |  |
| O=C(OCCN=c1c2ccccc2ccc2ccccc12)c1ccccc1 | > 100 µM | > 100 µM | > 100 µM | > 100 µM | > 100 µM | > 100 µM | > 100 µM | > 100 µM | > 100 µM | > 100 µM |  |  |  |
| COc1ccc(OC2OC(CO)C(OCc3ccccc3)C(OCc3ccccc3)C2OCc2ccccc2)cc1 (stereo not drawn) | > 100 µM | > 100 µM | > 100 µM | > 100 µM | > 100 µM | > 100 µM | > 100 µM | > 100 µM | > 100 µM | 72.9 µM |  |  |  |
| Cn1c(=O)c(-c2ccccc2)c(O)c2ccccc21 | > 100 µM | > 100 µM | > 100 µM | > 100 µM | > 100 µM | > 100 µM | > 100 µM | > 100 µM | > 100 µM | > 100 µM |  |  |  |
| Cc1ccc2c(c1)-c1c(C#N)c(N)nc(-c3ccc(Cl)cc3)c1CCS2(=O)=O | > 100 µM | > 100 µM | > 100 µM | 14.3 µM | 8.88 µM | > 100 µM | > 100 µM | > 100 µM | > 100 µM | 68.7 µM |  |  |  |
| O=[N+]([O-])c1ccc(NC(=S)N=Nc2c(O)[nH]c3ccc([N+](=O)[O-])cc23)cc1 | > 100 µM | 72.4 µM | 43.2 µM | 42.8 µM | 41.7 µM | 37.6 µM | 63.6 µM | 40 µM | 45 µM | > 100 µM |  |  |  |
| CCC(O)(Cc1ccc(OC)cc1)c1ccc(OC)cc1 (stereo not drawn) | > 100 µM | > 100 µM | > 100 µM | > 100 µM | > 100 µM | > 100 µM | > 100 µM | > 100 µM | > 100 µM | > 100 µM |  |  |  |
| CC1C(NNc2ccccc2)Oc2cc3c(cc2C1c1ccccc1O)OCO3 (stereo not drawn) | 20.1 µM | 32.6 µM | 13.7 µM | 23.6 µM | 18.4 µM | 16.8 µM | 23.3 µM | 19.3 µM | 28.7 µM | 19.2 µM |  |  |  |
| CCc1c(CNc2ccc(C(=O)NC(CC(=O)O)C(=O)O)cc2)ccc2nc(N)nc(N)c12 (stereo not drawn) | > 1000 µM | > 1000 µM | > 1000 µM | > 1000 µM | > 1000 µM | > 1000 µM | > 1000 µM | > 1000 µM | > 1000 µM | > 1000 µM | 115 µM | 558 µM | > 1000 µM |
| COC(=O)Cc1ccc2c(cnn2-c2ccccc2)c1OC | > 10 µM | > 10 µM | > 10 µM | > 10 µM | > 10 µM | > 10 µM | > 10 µM | > 10 µM | > 10 µM | > 10 µM |  |  |  |
| C1=C2C3=[N+](CCCCC3)CC2Cc2ccsc21 (stereo not drawn) | > 100 µM | > 100 µM | > 100 µM | > 100 µM | > 100 µM | > 100 µM | > 100 µM | > 100 µM | > 100 µM | > 100 µM |  |  |  |
| Cc1cc(S(=O)(=O)Nc2n[nH]c(-c3ccccn3)n2)c(S)cc1Cl | > 100 µM | 88.3 µM | 15.7 µM | 85.8 µM | > 100 µM | > 100 µM | 92 µM | 85.4 µM | > 100 µM | > 100 µM |  |  |  |
| COc1cc(C(c2c(O)c3ccccc3oc2=O)c2c(O)c3ccccc3oc2=O)cc(Br)c1O | 29.8 µM | 30 µM | 34.9 µM | 39.4 µM | 36 µM | 38.7 µM | 34.2 µM | 30 µM | 32.8 µM | 64.8 µM |  |  |  |
| CC1CCC2(NC1)OC1CC3C4CC=C5CC(OC6OC(CO)C(OC7OC(C)C(O)C(O)C7O)C(O)C6OC6OC(C)C(O)C(O)C6O)CCC5(C)C4CCC3(C)C1C2C (stereo not drawn) | 4.83 µM | 4.05 µM | 8.66 µM | 5.87 µM | 4.99 µM | 9.17 µM | 6.4 µM | 15.5 µM | 8.93 µM | 26.7 µM |  |  |  |
| C=C(C)OCOCCOC | > 100 µM | > 100 µM | > 100 µM | > 100 µM | > 100 µM | > 100 µM | > 100 µM | > 100 µM | > 100 µM | > 100 µM |  |  |  |
| CC(C)c1cccc(C(C)C)c1NC(=O)/C(CC(=O)CC(c1ccccc1)c1c(O)c2ccccc2oc1=O)=N/O (stereo not drawn) | > 100 µM | > 100 µM | > 100 µM | > 100 µM | > 100 µM | > 100 µM | > 100 µM | > 100 µM | > 100 µM | > 100 µM |  |  |  |

| SMILES | TGI (SN12C renal) | TGI (SF-268 CNS) | TGI (CAKI-1 renal) | TGI (SNB-75 CNS) | TGI (MDA-N) | TGI (KM12 colon) | TGI (EKVX NSCLC) | TGI (IGROV1 ovarian) | TGI (MDA-MB-231 breast) | TGI (MOLT-4 leukemia) | GI50 (SNB-75 CNS) | GI50 (EKVX NSCLC) | GI50 (MDA-MB-231 breast) |
| --- | --- | --- | --- | --- | --- | --- | --- | --- | --- | --- | --- | --- | --- |
| COc1ccc2nc(/C(N)=C\C#N)ccc2c1 | > 100 µM | > 100 µM | > 100 µM | > 100 µM | > 100 µM | > 100 µM | > 100 µM | > 100 µM | > 100 µM | 88.5 µM |  |  |  |
| Cc1cc(C)c(S(=O)(=O)N(CCCN)OCCCON(CCCN)S(=O)(=O)c2c(C)cc(C)cc2C)c(C)c1 | 13.6 µM | 2.8 µM | 29.3 µM | 3.29 µM | 3.51 µM | 3.79 µM | 19.4 µM | 3.86 µM | 3.31 µM | 10.7 µM |  |  |  |
| N#C/C(=C/n1c(=S)[nH]c2ccc([N+](=O)[O-])cc21)C(N)=O | > 100 µM | > 100 µM | > 100 µM | > 100 µM | > 100 µM | > 100 µM | > 100 µM | > 100 µM | > 100 µM | > 100 µM |  |  |  |
| CN1C(=O)N(C)C(O)C(Cl)(Br)C1=O (stereo not drawn) | > 100 µM | > 100 µM | > 100 µM | > 100 µM | > 100 µM | > 100 µM | > 100 µM | > 100 µM | > 100 µM | > 100 µM |  |  |  |
| Nc1nc(Cl)cc(NCC2(O)CC2)n1 | > 100 µM | > 100 µM | > 100 µM | > 100 µM | > 100 µM | > 100 µM | > 100 µM | > 100 µM | > 100 µM | > 100 µM |  |  |  |
| Cc1cc2ncn(C3CCCCO3)c2cc1C (stereo not drawn) | > 100 µM | > 100 µM | > 100 µM | > 100 µM | > 100 µM | > 100 µM | > 100 µM | > 100 µM | > 100 µM | > 100 µM |  |  |  |
| C/C=C(/C)C(=O)OC1CC(C)[C@H]2CC(=O)C(C)=C2CC1C(C)(C)OC(C)=O (stereo partly drawn) | > 100 µM | > 100 µM | > 100 µM | > 100 µM | > 100 µM | 91.6 µM | > 100 µM | > 100 µM | > 100 µM | 76.8 µM |  |  |  |
| c1ccc2c(c1)Sc1nccc3ccnc-2c13 | > 100 µM | > 100 µM | 41 µM | 58.7 µM | > 100 µM | > 100 µM | > 100 µM | > 100 µM | > 100 µM | 56.6 µM |  |  |  |
| Cc1[nH]c(=O)nc(NCCNCCO)c1C(=O)Nc1cccc2cc3ccccc3cc12 | > 100 µM | > 100 µM | > 100 µM | > 100 µM | > 100 µM | > 100 µM | > 100 µM | > 100 µM | > 100 µM | > 100 µM |  |  |  |
| O=C1C=CC(=O)c2c(O)c(N3CCC[C@H]3CO)c(Cl)c(O)c21 | 3.2 µM | > 10 µM | 3.57 µM | > 10 µM | 3.51 µM | > 6.06 µM | > 10 µM | > 7.96 µM | 6.48 µM | 1.95 µM |  |  |  |
| CN(C)CC1CCC/C(=C\c2ccc(OC(=O)c3ccc(Cl)cc3)cc2)C1=O (stereo not drawn) | 4.84 µM | 9.07 µM | 5.13 µM | 9.16 µM | 7.45 µM | 5.9 µM | 6.16 µM | 8.27 µM | 5.73 µM | 3.19 µM |  |  |  |
| CC1=NN(c2nc(N)nc(-c3sccc3N)n2)C(C)(C)C1 | > 100 µM | > 100 µM | > 100 µM | > 100 µM | > 100 µM | > 100 µM | > 100 µM | > 100 µM | > 100 µM | > 100 µM |  |  |  |
| O=c1[nH]c2nc3ccccc3nc2[nH]c1=O | > 100 µM | > 100 µM | > 100 µM | > 100 µM | > 100 µM | > 100 µM | > 100 µM | > 100 µM | > 100 µM | > 100 µM |  |  |  |
| O=c1nc2c(c(-c3ccc(Br)cc3)[nH]1)COC/C2=C\c1ccc(Br)cc1 | > 50 µM | > 50 µM | > 50 µM | > 50 µM | > 50 µM | > 50 µM | > 50 µM | > 50 µM | > 50 µM | > 50 µM |  |  |  |
| O=C1N=C2SC(=S)NC(=S)N2NC12c1ccccc1-c1ccccc12 | > 10 µM | > 10 µM | > 10 µM | > 10 µM | > 10 µM | > 10 µM | > 10 µM | > 10 µM | > 10 µM | > 10 µM |  |  |  |
| CC(C)C(CC(=O)OCC(CO)OC(=O)CC(C(C)C)C(C)C)C(C)C (stereo not drawn) | 28.3 µM | 27.6 µM | 25.4 µM | 21.8 µM | 30.1 µM | 32 µM | 27 µM | 33.2 µM | 33.9 µM | 31.5 µM |  |  |  |
| COc1ccc(Nc2nc(N)c(C(=O)c3c[nH]c4ccccc34)s2)cc1 | > 100 µM | > 100 µM | > 100 µM | 6.56 µM | 0.878 µM | 26.1 µM | > 100 µM | > 100 µM | > 100 µM | 20.9 µM |  |  |  |
